According to US12391695B2, “PRMT5 inhibitors” (Lupin Limited, priority 2019, dated 2025):
Like-named read-outs stand apart in the source and are kept apart here.

Assays:
[1] = system: Z-138 cells; experiment: Anti-cancer assay (Z-138), cell viability by CellTiterGlo; format: cell-based; details: Homo sapiens, 96 h treatment, read-out: IC50 (activity range), inhibition of cell viability
Method: Z-138 cells were seeded at a density of 2000-3000 cells per well in culture media (IMDM+10% FBS). PANC-1 (ATCC, CRL-1469™) and MIA PaCa-2 (ATCC, CRL-1420™) cells were seeded at a density of 200-300 cells per well in culture media (DMEM+10% FBS). Cells were seeded in opaque, flat bottomed tissue culture grade 96-well plates and Z-138 cells (suspension) were seeded and treated on the same day with various concentrations of test compounds. PANC-1 and MIA PaCa-2 cells, being adherent, were kept for overnight settlement at standard cell culture conditions (37° C., 5% CO2). On the following day, cells were treated with various concentrations of test compounds. Cells were treated with test compounds for a period of 96 h, 7 days and 10 days, for Z-138 cells, PANC-1 cells and MIA PaCa-2 cells, respectively. Cell viability was assessed using CellTiterGlo™ (Promega, USA) as per manufacturer's instructions. Relative Light Units (RLU) were read in Synergy™ 2 reader (Biotek, USA). The assay measures cellular ATP as an indicator of cell viability. RLU is proportional to the number of viable cells in the respective well. % inhibition of cell viability was calculated relative to the vehicle control samples containing media with 0.1% DMSO alone as per the formula below. (Avg. of Untreated Control−Avg. of Test)×100 Avg. Of Untreated Control
The IC50 values of individual compounds were calculated with Non Linear Regression Analysis using Graph Pad Prism (Graph Pad software, Inc, USA). • Anti-Cancer Assay (Z-138)

[2] = molecular target: PRMT5:MEP50 (Homo sapiens, UniProt O14744); experiment: PRMT5 biochemical assay (HTRF, biotinylated H4R3 substrate), protocols 1 and 2; details: 1 μM SAM, 50 nM biotinylated H4R3, protocol 1 or 2 not given, read-out: IC50 (activity range), inhibition of PRMT5
PRMT5:MEP50, sequence (O14744 whole entry, the tested form may be a part): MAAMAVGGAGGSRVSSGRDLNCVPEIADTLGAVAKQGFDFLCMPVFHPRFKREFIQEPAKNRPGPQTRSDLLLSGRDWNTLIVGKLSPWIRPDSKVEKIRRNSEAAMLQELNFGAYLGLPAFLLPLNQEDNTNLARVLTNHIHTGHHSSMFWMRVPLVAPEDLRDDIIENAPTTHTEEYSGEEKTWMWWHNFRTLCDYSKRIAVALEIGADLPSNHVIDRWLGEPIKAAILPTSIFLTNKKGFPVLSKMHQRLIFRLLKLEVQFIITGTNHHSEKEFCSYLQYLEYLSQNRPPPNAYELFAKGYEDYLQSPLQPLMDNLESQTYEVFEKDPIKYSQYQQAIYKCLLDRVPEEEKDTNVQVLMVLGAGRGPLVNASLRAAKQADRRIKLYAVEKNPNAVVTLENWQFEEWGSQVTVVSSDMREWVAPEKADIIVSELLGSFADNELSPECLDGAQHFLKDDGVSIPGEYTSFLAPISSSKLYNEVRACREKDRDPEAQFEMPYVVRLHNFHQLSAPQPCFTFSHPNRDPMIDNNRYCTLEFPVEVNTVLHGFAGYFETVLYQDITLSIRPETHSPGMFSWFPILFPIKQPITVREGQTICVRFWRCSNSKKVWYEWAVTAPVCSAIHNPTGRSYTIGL
PRMT5:MEP50, sequence (Q9BQA1 whole entry partner, the tested form may be a part): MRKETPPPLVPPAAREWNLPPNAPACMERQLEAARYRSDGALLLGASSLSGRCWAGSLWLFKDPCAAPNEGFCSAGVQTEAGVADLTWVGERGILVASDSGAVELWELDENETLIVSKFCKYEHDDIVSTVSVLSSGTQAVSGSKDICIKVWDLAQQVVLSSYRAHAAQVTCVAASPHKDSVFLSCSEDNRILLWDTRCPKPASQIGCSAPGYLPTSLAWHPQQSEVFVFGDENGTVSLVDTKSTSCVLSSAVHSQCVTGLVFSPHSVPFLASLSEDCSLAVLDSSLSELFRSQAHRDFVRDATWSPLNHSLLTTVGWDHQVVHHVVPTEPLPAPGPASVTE
Method: (§1) Inhibitory effect of compounds on PRMT5 was assessed using HTRF detection technology in biochemical assay. Biotinylated H4R3 (residues 1-21) was used as a substrate. Compounds were pre-incubated with 15-25 ng PRMT5:MEP50 per well of a 384-well plate for 30 min at room temperature in the assay buffer containing 20 mM Bicine, pH 7.6, 25 mM NaCl, 2 mM DTT, 0.01% Chicken albumin and 0.01% Tween-20. Reaction was initiated by adding 1 μM of SAM and 50 nM biotinylated H4R3. Total assay volume was 15 μL. Reaction was continued for 120 min at room temperature. Then detection solution containing Streptavidin-Eu cryptate, anti-rabbit IgG-XL-665, Histone H4R3 Dimethyl Symmetric (H4R3me2s) Polyclonal Antibody, all prepared in HTRF detection buffer was added and further incubated for 30 min at room temperature. HTRF signal was recorded in PHERAStar microplate reader. Ratio of signal obtained at 665 nm and 620 nm was used to compute the percent inhibition of compound as follows % Inhibition=100−((Test Ratio−Negative control Ratio)/(Positive control Ratio−Negative control Ratio)*100) where Positive control=PRMT5+SAM+H4R3 Negative control=PRMT5+H4R3 Biochemical Assay Protocol 2
as §1, with “2.5” for “15-25”, “4 h” for “120 min”, “control=PRMT5+H4R3” for “control=PRMT5+H4R3 Biochemical Assay Protocol 2”

[3] = system: SDMA; experiment: SDMA inhibition assay in Z-138 cells (ELISA with anti-SDMA antibody); format: cell-based; details: Homo sapiens, Z-138, 48 h, 48 h treatment
Method: Z-138 cells (ATCC, CRL-3001™) were seeded at a density of 1 million cells/well in transparent, flat bottomed tissue culture grade 48-well plates. Cells were treated with various concentration of test compounds for a period of 48 h. Cell lysate was prepared using 1× CST Lysis buffer (Cell Signaling Technology, USA) and 500 ng/well/50 μL of lysate in pH 9.6 carbonate buffer was coated on 96-well Maxisorb plate and incubated overnight at 4° C. The plate was washed twice in 1×PBS containing 0.05% Tween 20 and blocked in 1% BSA for 1 h at ambient temperature. Further, the plate was incubated first with primary antibody (anti-SDMA antibody; CST #13222s) at ambient temperature for 2 h and then with HRP-conjugated secondary antibody at ambient temperature for 1 h with 2 intermittent washing steps in between.
For luminiscence based detection, HRP substrates (substrate A+substrate B in a 1:1 proportion) were added followed by luminiscence reading after 30 min in Synergy™ 2 reader (Biotek, USA).
For absorbance based detection, TMB substrate was added followed by addition of STOP solution (2N H2SO4) post colour development and absorbance (excitation 450 nm and emission 540 nm) was measured in Synergy™ 2 reader (Biotek, USA).
% inhibition of SDMA was calculated relative to the vehicle control samples containing media with 0.1% DMSO alone as per the formula below. (Avg. of Untreated Control−Avg. of Test)×100 Avg. Of Untreated Control
The IC50 values of individual compounds were calculated with Non Linear Regression Analysis using Graph Pad Prism (Graph Pad software, Inc, USA).

[4] = read-out: IC50 (activity range), SDMA inhibition
[5] = range with mixed units pM/nM, units kept in the value

Compound	IC50 [1]	IC50 [2]	IC50 [3, 4]	IC50 [1, 5]	IC50 [3, 5]
Nc1cnc2ccc(CC[C@@]34C[C@@H]3[C@@H](n3ccc5c(N)ncnc53)[C@H](O)[C@@H]4O)cc2n1 [Compound 4, (1R,2R,3S,4R,5S)-4-(4-Amino-7H-pyrrolo[2,3-d]pyrimidin-7-yl)-1-(2-(3-aminoquinoxalin-6-yl)ethyl)bicyclo[3.1.0]hexane-2,3-diol]	> 1000 pM	0.25 to 0.95 nM	1100 to 50000 pM	–	–
Nc1cnc2ccc(CCC3=C[C@@H](n4ccc5c(N)ncnc54)[C@H](O)[C@@H]3O)cc2n1 [Compound 3, (1S,2R,5R)-5-(4-Amino-7H-pyrrolo[2,3-d]pyrimidin-7-yl)-3-(2-(3-aminoquinoxalin-6-yl)ethyl)cyclopent-3-ene-1,2-diol]	> 1000 pM	0.25 to 0.95 nM	1100 to 50000 pM	–	–
CC1CNCc2c(CCC3=C[C@@H](n4ccc5c(N)ncnc54)[C@H](O)[C@@H]3O)cc(C(F)F)c(F)c21 (single isomer, unassigned) [Compound 22A]	> 1000 pM	0.25 to 0.95 nM	1100 to 50000 pM	–	–
Cc1ncnc2c1ccn2[C@@H]1C=C(CCc2cc(C(F)F)c(F)c3c2CNCC3)[C@@H](O)[C@H]1O [Compound 15, (1S,2R,5R)-3-(2-(6-(difluoromethyl)-5-fluoro-1,2,3,4-tetrahydroisoquinolin-8-yl)ethyl)-5-(4-methyl-7H-pyrrolo[2,3-d]pyrimidin-7-yl)cyclopent-3-ene-1,2-diol]	–	0.25 to 0.95 nM	–	101 to 1000 pM	100 to 1000 pM
Nc1nc2cc(CCC3=C[C@@H](n4ncc5c(N)ncnc54)[C@H](O)[C@@H]3O)cc(F)c2cc1Cl [Compound 5, (1S,2R,5R)-5-(4-Amino-1H-pyrazolo[3,4-d]pyrimidin-1-yl)-3-(2-(2-amino-3-chloro-5-fluoroquinolin-7-yl)ethyl)cyclopent-3-ene-1,2-diol]	–	0.25 to 0.95 nM	–	101 to 1000 pM	100 to 1000 pM
Nc1ncnc2c1ccn2[C@@H]1C=C(COc2cc(C(F)F)cc3c2CNCC3)[C@@H](O)[C@H]1O [Compound 7, (1S,2R,5R)-5-(4-amino-7H-pyrrolo[2,3-d]pyrimidin-7-yl)-3-(((6-(difluoromethyl)-1,2,3,4-tetrahydroisoquinolin-8-yl)oxy)methyl)cyclopent-3-ene-1,2-diol]	> 1000 pM	0.25 to 0.95 nM	1100 to 50000 pM	–	–
Nc1ncnc2c1ccn2[C@@H]1C=C(CCc2ccc(F)c3c2CNCC3)[C@@H](O)[C@H]1O [Compound 9, (1S,2R,5R)-5-(4-amino-7H-pyrrolo[2,3-d]pyrimidin-7-yl)-3-(2-(5-fluoro-1,2,3,4-tetrahydroisoquinolin-8-yl)ethyl)cyclopent-3-ene-1,2-diol]	> 1000 pM	0.25 to 0.95 nM	1100 to 50000 pM	–	–
Nc1ncnc2c1ccn2[C@@H]1C=C(CCc2cc(F)c(F)c3c2CNCC3)[C@@H](O)[C@H]1O [Compound 21, (1S,2R,5R)-5-(4-amino-7H-pyrrolo[2,3-d]pyrimidin-7-yl)-3-(2-(5,6-difluoro-1,2,3,4-tetrahydroisoquinolin-8-yl)ethyl)cyclopent-3-ene-1,2-diol]	–	0.25 to 0.95 nM	1100 to 50000 pM	101 to 1000 pM	–
Cc1cc(=O)n([C@@H]2C=C(COc3cc(F)c4cc(Cl)c(N)nc4c3)[C@@H](O)[C@H]2O)cn1 [Compound 18, 3-((1R,4R,5S)-3-(((2-amino-3-chloro-5-fluoroquinolin-7-yl)oxy)methyl)-4,5-dihydroxycyclopent-2-en-1-yl)-6-methylpyrimidin-4 (3H)-one]	> 1000 pM	> 0.95 nM	1100 to 50000 pM	–	–
Cc1cc2c(c(CCC3=C[C@@H](n4ccc5c(N)ncnc54)[C@H](O)[C@@H]3O)c1)CNCC2 [Compound 8, (1S,2R,5R)-5-(4-amino-7H-pyrrolo[2,3-d]pyrimidin-7-yl)-3-(2-(6-methyl-1,2,3,4-tetrahydroisoquinolin-8-yl)ethyl)cyclopent-3-ene-1,2-diol]	> 1000 pM	0.25 to 0.95 nM	1100 to 50000 pM	–	–
Nc1nc2cc(CCC3=C[C@@H](n4ccc5c4ncn4ccnc54)[C@H](O)[C@@H]3O)ccc2cc1Br [Compound 26, (1S,2R,5R)-3-(2-(2-Amino-3-bromoquinolin-7-yl)ethyl)-5-(7H-imidazo[1,2-c]pyrrolo[3,2-e]pyrimidin-7-yl)cyclopent-3-ene-1,2-diol]	> 1000 pM	> 0.95 nM	1100 to 50000 pM	–	–
Nc1nc2cc(CC[C@@]34C[C@@H]3[C@@H](n3ccc5c(N)ncnc53)[C@H](O)[C@@H]4O)cnc2cc1Cl [Compound 24, (1R,2R,3S,4R,5S)-1-(2-(6-Amino-7-chloro-1,5-naphthyridin-3-yl)ethyl)-4-(4-amino-7H-pyrrolo[2,3-d]pyrimidin-7-yl)bicyclo[3.1.0]hexane-2,3-diol]	> 1000 pM	0.25 to 0.95 nM	1100 to 50000 pM	–	–
Cc1ncnc2c1ccn2[C@@H]1C=C(CCc2cc(C(F)F)cc3c2CNCC3)[C@@H](O)[C@H]1O [Compound 14, (1S,2R,5R)-3-(2-(6-(difluoromethyl)-1,2,3,4-tetrahydroisoquinolin-8-yl)ethyl)-5-(4-methyl-7H-pyrrolo[2,3-d]pyrimidin-7-yl)cyclopent-3-ene-1,2-diol]	–	0.25 to 0.95 nM	1100 to 50000 pM	101 to 1000 pM	–
Cc1cn([C@@H]2C=C(CCc3cc(C(F)F)c(F)c4c3CNCC4)[C@@H](O)[C@H]2O)c2ncnc(N)c12 [Compound 25, (1S,2R,5R)-5-(4-amino-5-methyl-7H-pyrrolo[2,3-d]pyrimidin-7-yl)-3-(2-(6-(difluoromethyl)-5-fluoro-1,2,3,4-tetrahydroisoquinolin-8-yl)ethyl)cyclopent-3-ene-1,2-diol]	> 1000 pM	0.25 to 0.95 nM	1100 to 50000 pM	–	–
Nc1ncnc2c1ccn2[C@@H]1C=C(CCc2cc(C(F)F)cc3c2CNCC3)[C@@H](O)[C@H]1O [Compound 10, (1S,2R,5R)-5-(4-amino-7H-pyrrolo[2,3-d]pyrimidin-7-yl)-3-(2-(6-(difluoromethyl)-1,2,3,4-tetrahydroisoquinolin-8-yl)ethyl)cyclopent-3-ene-1,2-diol]	–	0.25 to 0.95 nM	–	101 to 1000 pM	100 to 1000 pM
